Assay results: patent US11999727B2 (Tango Therapeutics, Inc., priority 2020, dated 2024)
pIC50: −log10 of the molar value. Where two headings read alike, the source gives them in different places.

Key:
[1] = tested on: HAP1 MTAP-intact cell line; assay: SDMA in-cell western assay, HAP1 MTAP-intact; type: cell-based; details: Homo sapiens
How it was run: (§1)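 Readout: in-cell western detection of SDMA. Cells: HAP1 expressing endogenous MTAP and an MTAP-null HAP1 counterpart. Output: IC50.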

PRMT5 [2] = biological target: T1, PRMT5 (Homo sapiens, UniProt O14744); assay: PRMT5 biochemical IC50 assay with MTA as cofactor; details: PRMT5, MTA as cofactor; read-out: MTA IC50
T1 construct: purchased Viva (custom protein)
T1 sequence (O14744 whole entry): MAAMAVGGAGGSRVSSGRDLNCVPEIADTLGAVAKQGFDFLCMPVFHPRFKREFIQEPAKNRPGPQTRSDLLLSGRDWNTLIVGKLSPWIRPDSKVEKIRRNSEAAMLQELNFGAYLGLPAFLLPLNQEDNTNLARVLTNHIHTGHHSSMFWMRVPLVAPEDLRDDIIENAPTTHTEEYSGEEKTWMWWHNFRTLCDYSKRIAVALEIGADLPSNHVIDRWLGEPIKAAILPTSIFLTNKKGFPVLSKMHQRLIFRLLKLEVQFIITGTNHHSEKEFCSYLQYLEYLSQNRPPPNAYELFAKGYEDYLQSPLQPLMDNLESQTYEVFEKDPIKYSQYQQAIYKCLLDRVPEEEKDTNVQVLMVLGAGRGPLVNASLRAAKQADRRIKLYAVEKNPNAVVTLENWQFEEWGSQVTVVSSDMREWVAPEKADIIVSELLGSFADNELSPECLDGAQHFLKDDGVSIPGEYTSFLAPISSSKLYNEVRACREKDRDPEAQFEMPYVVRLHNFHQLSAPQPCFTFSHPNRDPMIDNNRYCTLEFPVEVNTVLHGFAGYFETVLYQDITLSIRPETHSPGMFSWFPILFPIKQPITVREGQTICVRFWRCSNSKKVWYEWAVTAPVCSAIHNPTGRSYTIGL
T1 sequence (Q9BQA1 whole entry partner): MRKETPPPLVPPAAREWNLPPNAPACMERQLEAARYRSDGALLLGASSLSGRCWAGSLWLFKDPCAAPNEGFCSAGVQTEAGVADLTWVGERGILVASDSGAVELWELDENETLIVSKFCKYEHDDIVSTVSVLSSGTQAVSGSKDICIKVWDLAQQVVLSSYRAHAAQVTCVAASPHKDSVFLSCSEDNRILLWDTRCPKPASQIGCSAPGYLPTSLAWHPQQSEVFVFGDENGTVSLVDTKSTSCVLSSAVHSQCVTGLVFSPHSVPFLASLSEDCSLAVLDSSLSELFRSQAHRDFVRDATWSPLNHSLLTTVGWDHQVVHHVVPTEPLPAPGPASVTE

[3] = tested on: HAP1 MTAP-deleted cell line; assay: Viability assay, MTAP-deleted cell line; type: cell-based; details: Homo sapiens
Text: Table 1 additionally indicates IC50 values in a viability assay for the MTAP-deleted cell line (column 10), indicating the effect of treatment with compound on cell survival.

[4] = tested on: HAP1 MTAP-deleted cell line; assay: SDMA in-cell western assay, HAP1 MTAP-deleted; type: cell-based; details: for pIC50: Homo sapiens; for MTAP intact/deleted ratio: SDMA in-cell western
How it was run: as §1

PRMT5 [5] = biological target: T1, PRMT5; assay: PRMT5 biochemical IC50 assay with no cofactor; details: PRMT5, no cofactor
Text: Table 1 indicates IC50 values (μM) against PRMT5 for exemplary compounds in the presence of SAM as cofactor, with no cofactor, and with MTA as cofactor, respectively (columns 4-6). […] Ki values can be calculated from the IC50 values as described in the Examples section. As detailed in the Examples section, for the assay performed in the presence of SAM, IC50=Ki×1.5 (Ki=IC50/1.5).

PRMT5 [6] = biological target: T1, PRMT5; assay: PRMT5 biochemical IC50 assay with SAM as cofactor; details: PRMT5, SAM as cofactor; read-out: SAM IC50
[7] = HAP1, SDMA in-cell western, HAP1 MTAP-intact, read-out: MTAP HAP1 intact IC50
[8] = HAP1, viability assay, HAP1 MTAP-deleted, read-out: HAP1 MTAP deleted viability
[9] = HAP1, SDMA in-cell western, HAP1 MTAP-deleted, read-out: HAP1 MTAP deleted IC50
[10] = IC50 ratio HAP1 MTAP-intact / HAP1 MTAP-deleted
[11] = HAP1, viability IC50, MTAP-deleted cell line, read-out: HAP1 MTAP deleted viability
[12] = HAP1, SDMA in-cell western, HAP1 MTAP-deleted, read-out: HAP 1 MTAP deleted IC50
[13] = HAP1, viability assay, MTAP-deleted cell line, read-out: HAP1 MTAP deleted viability
[14] = HAP1, viability, HAP1 MTAP-deleted cell line, read-out: HAP1 MTAP deleted viability
[15] = read-out: No Cofactor/ rel IC50
[16] = IC50 ratio HAP1 MTAP-intact vs HAP1 MTAP-deleted

Compound | pIC50 [1, 7] | pIC50 (PRMT5 [2]) | pIC50 [3, 8] | pIC50 [4, 9] | MTAP intact/deleted ratio [4, 10] | pIC50 (PRMT5 [5]; read-out: No Cofactor/rel IC50) | pIC50 (PRMT5 [6]) | pIC50 [3, 11] | pIC50 [4, 12] | pIC50 [3, 13] | pIC50 [3, 14] | pIC50 (PRMT5 [5]; [15]) | MTAP intact/deleted ratio [4, 16] | pIC50 ([1]; HAP1, read-out: MTAP HAP1 intact IC50) | pIC50 ([3]; HAP1, read-out: HAP1 MTAP deleted viability) | pIC50 ([4]; HAP1, read-out: HAP1 MTAP deleted IC50)
Cc1cc(NC(=O)C(=O)N2CCC(C(=O)C(C)C)C[C@H]2c2ccc3c(c2)CCC(=O)N3)cnc1N (mixture of isomers) [Compound 854, N-(6-Amino-5-methyl-3-pyridyl)-2-[(2S)-4-(2-methylpropanoyl)-2-(2-oxo-3,4-dihydro-1H-quinolin-6-yl)-1-piperidyl]-2-oxo-acetamide] | < 6.00 | 6.30 to 7.30 | 5.00 to 6.00 | 6.00 to 7.00 | A (an IC50 ratio greater than or equal to 10 fold) | 6.30 to 7.30 | 6.30 to 7.30 | – | – | – | – | – | – | – | – | –
Cc1ccc([C@@H]2CC[C@@H](C)CN2C(=O)C(=O)Nc2cnc(N)c(C)c2)cn1 (single isomer, unassigned) [Compound 687] | 6.00 to 7.00 | > 7.30 | – | – | A (an IC50 ratio greater than or equal to 10 fold) | > 7.30 | 6.30 to 7.30 | > 6.00 | > 7.00 | – | – | – | – | – | – | –
CCc1cc(NC(=O)C(=O)N2C[C@H](C)CC[C@H]2c2ccc(N3CCN(C)CC3)cc2)cnc1N (single isomer, unassigned) [Compound 1116] | < 6.00 | < 6.30 | – | < 6.00 | – | < 6.30 | < 6.30 | – | – | < 5.00 | – | – | – | – | – | –
CCc1cc(NC(=O)C(=O)N2C[C@@H](C)CC[C@@H]2c2ccc(OCCN(C)C)cc2)cnc1N [Compound 1292, N-(6-amino-5-ethylpyridin-3-yl)-2-((2R,5S)-2-(4-(2-(dimethylamino)ethoxy)phenyl)-5-methylpiperidin-1-yl)-2-oxoacetamide] | 6.00 to 7.00 | > 7.30 | – | – | A (an IC50 ratio greater than or equal to 10 fold) | – | 6.30 to 7.30 | – | > 7.00 | – | > 6.00 | > 7.30 | – | – | – | –
C[C@H]1CC[C@H](c2ccc(S(N)(=O)=O)cc2)N(C(=O)C(=O)Nc2cncc(C(N)=O)c2)C1 (single isomer, unassigned) [Compound 724] | < 6.00 | < 6.30 | < 5.00 | < 6.00 | C (an IC50 ratio of less than 3 fold) | < 6.30 | < 6.30 | – | – | – | – | – | – | – | – | –
Cc1cc(NC(=O)C(=O)N2C[C@H](C)CC[C@H]2c2ccc(-c3cn[nH]c3)cc2)cnc1N (single isomer, unassigned) [Compound 628] | 6.00 to 7.00 | 6.30 to 7.30 | – | – | A (an IC50 ratio greater than or equal to 10 fold) | > 7.30 | 6.30 to 7.30 | > 6.00 | > 7.00 | – | – | – | – | – | – | –
C[C@H]1CC[C@H](c2cc(Cl)cc(Cl)c2)N(C(=O)C(=O)Nc2cncc(C(N)=O)c2)C1 (single isomer, unassigned) [Compound 491] | < 6.00 | > 7.30 | – | 6.00 to 7.00 | A (an IC50 ratio greater than or equal to 10 fold) | 6.30 to 7.30 | 6.30 to 7.30 | – | – | 5.00 to 6.00 | – | – | – | – | – | –
CCc1cc(NC(=O)C(=O)N2C[C@@H](C)CC[C@@H]2c2ccc3sc(CN4CCOCC4)nc3c2)cnc1N [Compound 1092, N-(6-amino-5-ethylpyridin-3-yl)-2-((2R,5S)-5-methyl-2-(2-(morpholinomethyl)benzo[d]thiazol-5-yl)piperidin-1-yl)-2-oxoacetamide] | 6.00 to 7.00 | > 7.30 | – | > 7.00 | – | > 7.30 | 6.30 to 7.30 | – | – | > 6.00 | – | – | A (an IC50 ratio greater than or equal to 10 fold) | – | – | –
Cc1cc(NC(=O)C(=O)N2C[C@H](C)CC[C@H]2c2ccc(-c3ccn[nH]3)cc2)cnc1N (single isomer, unassigned) [Compound 675] | < 6.00 | 6.30 to 7.30 | – | – | B (an IC50 ratio greater than or equal to 3 fold but lower than 10 fold) | < 6.30 | < 6.30 | < 5.00 | < 6.00 | – | – | – | – | – | – | –
CCc1cc(NC(=O)C(=O)N2C[C@@H](C)CC[C@@H]2c2ccc(NS(C)(=O)=O)cc2)cnc1N (single isomer, unassigned) [Compound 902] | 6.00 to 7.00 | > 7.30 | – | – | A (an IC50 ratio greater than or equal to 10 fold) | > 7.30 | 6.30 to 7.30 | – | > 7.00 | > 6.00 | – | – | – | – | – | –
Cc1cc(NC(=O)C(=O)N2C[C@@H](C)CC[C@@H]2c2cc(F)c(F)c(F)c2)cnc1N (single isomer, unassigned) [Compound 487] | < 6.00 | < 6.30 | – | < 6.00 | C (an IC50 ratio of less than 3 fold) | < 6.30 | < 6.30 | – | – | < 5.00 | – | – | – | – | – | –
COc1ncc(NC(=O)C(=O)N2C[C@@H](C)CC[C@@H]2c2ccc3sc(C4CN(C)C4)nc3c2)cc1C(N)=O [Compound 1257] | 6.00 to 7.00 | > 7.30 | – | – | A (an IC50 ratio greater than or equal to 10 fold) | – | > 7.30 | – | > 7.00 | – | > 6.00 | > 7.30 | – | – | – | –
CCc1cc(NC(=O)C(=O)N2C[C@@H](C)CC[C@@H]2c2ccc(N3CC[C@H]4CCN(C)C[C@H]4C3)cc2)cnc1N (single isomer, unassigned) [Compound 1204] | 6.00 to 7.00 | > 7.30 | – | > 7.00 | – | > 7.30 | 6.30 to 7.30 | – | – | > 6.00 | – | – | A (an IC50 ratio greater than or equal to 10 fold) | – | – | –
COc1ncc(NC(=O)C(=O)N2C[C@H](C)CC[C@H]2c2ccc3[nH]ncc3c2)cc1C(N)=O (single isomer, unassigned) [Compound 465] | < 6.00 | < 6.30 | – | < 6.00 | B (an IC50 ratio greater than or equal to 3 fold but lower than 10 fold) | < 6.30 | < 6.30 | – | – | < 5.00 | – | – | – | – | – | –
C[C@@H]1CN(C(=O)C(=O)Nc2cncc(C(N)=O)c2)[C@@H](c2ccccc2)C[C@H]1O (racemic) [Compound 459, rac-5-[[2-[(2R,4R,5R)-4-hydroxy-5-methyl-2-phenyl-1-piperidyl]-2-oxo-acetyl]amino]pyridine-3-carboxamide] | < 6.00 | 6.30 to 7.30 | – | 6.00 to 7.00 | A (an IC50 ratio greater than or equal to 10 fold) | 6.30 to 7.30 | 6.30 to 7.30 | – | – | < 5.00 | – | – | – | – | – | –
CC(=O)N[C@H]1C[C@H]([C@@H]2CC[C@H](C)CN2C(=O)C(=O)Nc2cnc(N)c(C)c2)C1 (single isomer, unassigned) [Compound 562] | < 6.00 | < 6.30 | – | – | C (an IC50 ratio of less than 3 fold) | < 6.30 | < 6.30 | < 5.00 | < 6.00 | – | – | – | – | – | – | –
Cc1cc(NC(=O)C(=O)N2C[C@@H](C)CC[C@@H]2c2cn[nH]c2)cnc1N (single isomer, unassigned) [Compound 941] | 6.00 to 7.00 | > 7.30 | – | – | B (an IC50 ratio greater than or equal to 3 fold but lower than 10 fold) | > 7.30 | 6.30 to 7.30 | – | > 7.00 | 5.00 to 6.00 | – | – | – | – | – | –
CCc1cc(NC(=O)C(=O)N2C[C@@H](C)CC[C@@H]2c2ccc3sc(NC)nc3c2)cnc1N (single isomer, unassigned) [Compound 884] | 6.00 to 7.00 | > 7.30 | – | – | A (an IC50 ratio greater than or equal to 10 fold) | > 7.30 | 6.30 to 7.30 | – | > 7.00 | > 6.00 | – | – | – | – | – | –
Cc1cncc(NC(=O)C(=O)N2C[C@H](C)CC[C@H]2c2cccc(F)c2)c1 (racemic) [Compound 70, rac-2-[(2S,5R)-2-(3-fluorophenyl)-5-methyl-1-piperidyl]-N-(5-methyl-3-pyridyl)-2-oxo-acetamide] | < 6.00 | 6.30 to 7.30 | – | – | C (an IC50 ratio of less than 3 fold) | – | < 6.30 | – | < 6.00 | < 5.00 | – | < 6.30 | – | – | – | –
COc1ncc(NC(=O)C(=O)N2C[C@H](C)CC[C@H]2c2ccccc2)cc1C(N)=O (single isomer, unassigned) [Compound 333] | – | > 7.30 | – | – | A (an IC50 ratio greater than or equal to 10 fold) | > 7.30 | 6.30 to 7.30 | – | – | – | – | – | – | < 6.00 | > 6.00 | > 7.00
